Measured values taken from the supplement of paper PMC11451515.

Test system: P12-Ichikawa
Test: cell viability relative to DMSO control; higher = less cytotoxic
Conditions: 48 h
How it was run: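 Library compounds in DMSO were pin-dosed into 1536-well plates (5 μl) holding NOMO1 or SEM (500 cells/well) or P12-Ichikawa (1000 cells/well) leukemia cells, across an 11-point threefold series of 47 μM to 0.79 nM. Each cell line had been adapted for at least four passages in each medium. CellTiter-Glo One luminescence was read after 48 h at 37°C. Viability is the per-plate percentage relative to DMSO wells, with cell-free wells as background.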

[1] = HPLM + 10% dialyzed FBS, 0.000781 µM
[2] = HPLM + 10% dialyzed FBS, 0.00234 µM
[3] = HPLM + 10% dialyzed FBS, 0.00702 µM
[4] = HPLM + 10% dialyzed FBS, 0.0211 µM
[5] = HPLM + 10% dialyzed FBS, 0.0632 µM
[6] = HPLM + 10% dialyzed FBS, 0.19 µM
[7] = HPLM + 10% dialyzed FBS, 0.569 µM
[8] = HPLM + 10% dialyzed FBS, 1.71 µM
[9] = HPLM + 10% dialyzed FBS, 5.12 µM
[10] = HPLM + 10% dialyzed FBS, 15.4 µM
[11] = HPLM + 10% dialyzed FBS, 46.1 µM
[12] = RPMI 5 mM glucose + 10% FBS, 0.000781 µM
[13] = RPMI 5 mM glucose + 10% FBS, 0.00234 µM
[14] = RPMI 5 mM glucose + 10% FBS, 0.00702 µM
[15] = RPMI 5 mM glucose + 10% FBS, 0.0211 µM
[16] = RPMI 5 mM glucose + 10% FBS, 0.0632 µM
[17] = RPMI 5 mM glucose + 10% FBS, 0.19 µM
[18] = RPMI 5 mM glucose + 10% FBS, 0.569 µM
[19] = RPMI 5 mM glucose + 10% FBS, 1.71 µM
[20] = RPMI 5 mM glucose + 10% FBS, 5.12 µM
[21] = RPMI 5 mM glucose + 10% FBS, 15.4 µM
[22] = RPMI 5 mM glucose + 10% FBS, 46.1 µM
[23] = RPMI 5 mM glucose + 10% dialyzed FBS, 0.000781 µM
[24] = RPMI 5 mM glucose + 10% dialyzed FBS, 0.00234 µM
[25] = RPMI 5 mM glucose + 10% dialyzed FBS, 0.00702 µM
[26] = RPMI 5 mM glucose + 10% dialyzed FBS, 0.0211 µM
[27] = RPMI 5 mM glucose + 10% dialyzed FBS, 0.0632 µM
[28] = RPMI 5 mM glucose + 10% dialyzed FBS, 0.19 µM
[29] = RPMI 5 mM glucose + 10% dialyzed FBS, 0.569 µM
[30] = RPMI 5 mM glucose + 10% dialyzed FBS, 1.71 µM
[31] = RPMI 5 mM glucose + 10% dialyzed FBS, 5.12 µM
[32] = RPMI 5 mM glucose + 10% dialyzed FBS, 15.4 µM
[33] = RPMI 5 mM glucose + 10% dialyzed FBS, 46.1 µM

Row | Structure (SMILES) | cell viability [1] | cell viability [2] | cell viability [3] | cell viability [4] | cell viability [5] | cell viability [6] | cell viability [7] | cell viability [8] | cell viability [9] | cell viability [10] | cell viability [11] | cell viability [12] | cell viability [13] | cell viability [14] | cell viability [15] | cell viability [16] | cell viability [17] | cell viability [18] | cell viability [19] | cell viability [20] | cell viability [21] | cell viability [22] | cell viability [23] | cell viability [24] | cell viability [25] | cell viability [26] | cell viability [27] | cell viability [28] | cell viability [29] | cell viability [30] | cell viability [31] | cell viability [32] | cell viability [33]
1 | CC1CCC(C(=O)N(c2cc(C#CC(C)(C)C)sc2C(=O)O)C2CCC(O)CC2)CC1 (stereo unspecified) | 102% | 91.2% | 98.4% | 95.9% | 95.1% | 95.7% | 93.1% | 88.2% | 83.2% | 59.5% | 49% | 91.2% | 96.3% | 92.4% | 92.5% | 95.6% | 87% | 96.7% | 75.9% | 71.9% | 49.2% | 45.5% | 85.8% | 92.4% | 77.3% | 95% | 86.3% | 83.8% | 88.5% | 77.4% | 69.2% | 54.3% | 38.4%
2 | COC1=NC(=NC(=C1N\C2=N\CCN2)Cl)C | 87% | 90% | 83.9% | 98.2% | 94.8% | 94.1% | 93.4% | 95% | 93.9% | 103% | 109% | 84.1% | 95.6% | 88.3% | 95.3% | 100% | 94.9% | 101% | 95.5% | 82.6% | 93.4% | 107% | 83.3% | 91.6% | 83.6% | 95.1% | 89.6% | 87.7% | 91.4% | 88.6% | 84.5% | 94% | 87.5%
3 | CN(CC#C)C/C1=C/C2=CC=CC=C2OC3=CC=CC=C13 | 91% | 85% | 92% | 87.6% | 90.8% | 89.6% | 90.1% | 80.8% | 84.1% | 83% | 87.1% | 91.8% | 86.1% | 88.2% | 91.2% | 92.6% | 84.7% | 76.5% | 83.3% | 78.4% | 83.1% | 82% | 83.3% | 81% | 89.8% | 87.8% | 88% | 87.9% | 88.4% | 76.5% | 77.2% | 82% | 78.4%
4 | C[C@H]1[C@H](NC(=O)/C(=N/OC(C)(C)C(=O)O)c2csc(N)n2)C(=O)N1[S+](=O)([O-])O | 108% | 116% | 109% | 102% | 106% | 117% | 111% | 105% | 109% | 95.3% | 103% | 99.3% | 102% | 97.1% | 102% | 101% | 106% | 101% | 110% | 98.4% | 93.4% | 97.3% | 81.3% | 101% | 101% | 102% | 110% | 102% | 101% | 93.8% | 93.3% | 99.4% | 92.3%
5 | CNC(=O)c1ccc(-c2cnc3ncc(Cc4ccc5ncccc5c4)n3n2)cc1F | 113% | 119% | 125% | 129% | 136% | 125% | 134% | 120% | 135% | 124% | 126% |  |  |  |  |  |  |  |  |  |  |  |  |  |  |  |  |  |  |  |  |  | 
6 | CN(c1ncccc1CNc1nc(Nc2ccc3c(c2)CC(=O)N3)ncc1C(F)(F)F)[S+](C)(=O)[O-] | 111% | 117% | 109% | 109% | 112% | 112% | 103% | 109% | 112% | 101% | 57.8% | 111% | 113% | 116% | 110% | 121% | 113% | 114% | 114% | 100% | 88.9% | 50.1% | 115% | 118% | 117% | 114% | 117% | 108% | 114% | 114% | 110% | 105% | 48.2%
7 | COc1ccc(-c2cc3nccn3c(Nc3ncccc3C(N)=O)n2)cc1OC | 103% | 112% | 110% | 112% | 113% | 119% | 117% | 115% | 116% | 114% | 109% | 97.4% | 109% | 105% | 111% | 111% | 109% | 97.4% | 104% | 114% | 107% | 96.5% | 99% | 111% | 111% | 105% | 110% | 115% | 116% | 90.9% | 114% | 101% | 102%
8 | CN\1C(=O)/C(=C(\N=C1N2CCCC[S+]2([O-])=O)C(=O)NCC3=CC=C(F)C=C3)O | 124% | 123% | 115% | 113% | 118% | 122% | 119% | 111% | 107% | 109% | 103% |  |  |  |  |  |  |  |  |  |  |  | 124% | 116% | 119% | 126% | 127% | 117% | 123% | 120% | 99.7% | 109% | 102%
